Consider one compound from article PMC11873758, “Lonidamine, a Novel Modulator for the BvgAS System of Bordetella Species” (Microbiology and Immunology, 2024).

The target of this experiment is T1, VFT2 domain of BvgS (Bordetella pertussis, UniProt P16575).
T1 construct: His tag from pColdII (no GB1)
Kind of experiment: isothermal titration calorimetry. It counts as binding. Conditions: 50 mM sodium phosphate, pH 7.4; 300 µM lonidamine into 20 µM VFT2. (Isothermal titration calorimetry measures the heat released or taken up as one component is titrated into another.)

Each structure is given as a SMILES string.

T1 sequence (P16575 290-541): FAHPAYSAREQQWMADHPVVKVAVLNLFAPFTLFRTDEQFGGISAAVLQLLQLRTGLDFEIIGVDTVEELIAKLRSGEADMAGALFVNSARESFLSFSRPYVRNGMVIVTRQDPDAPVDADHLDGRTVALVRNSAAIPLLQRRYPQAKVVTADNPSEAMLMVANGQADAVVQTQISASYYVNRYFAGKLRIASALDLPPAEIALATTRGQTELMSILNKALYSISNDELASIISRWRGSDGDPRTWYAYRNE

In the case of `O=C(O)c1nn(Cc2ccc(Cl)cc2Cl)c2ccccc12` [#5, 1‐(2,4‐dichlorobenzyl)‐1H‐indazole‐3‐carboxylic acid], the isothermal titration calorimetry result is “ITC revealed that lonidamine bound to VFT2 but not VFT1”.
